Test results as given in patent publication US12344597B2, “Alkoxy-substituted pyridinyl derivatives as LPA1 receptor antagonists and their use in the treatment of fibrosis” (IDORSIA PHARMACEUTICALS LTD, priority 2018, dated 2025).

Target: human LPA1 receptor (Homo sapiens (Human), UniProt Q92633)
Assay: Beta-arrestin recruitment assay to determine IC50 values for human LPAR1
Format: cell-based
Settings: antagonist mode, Tango EDG2-bla U2OS cells, LPA 18:1 500 nM final
Method in brief: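 Tango EDG2-bla U2OS cells: LPA-driven beta-arrestin/TEV protease recruitment releases Gal4-VP16, inducing beta-lactamase reporter read with live-cell substrate. Cells seeded 20 h at 37 °C beforehand. IC50 is antagonist concentration inhibiting 50% of maximal response.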

human LPA1 receptor, sequence (Q92633 whole entry): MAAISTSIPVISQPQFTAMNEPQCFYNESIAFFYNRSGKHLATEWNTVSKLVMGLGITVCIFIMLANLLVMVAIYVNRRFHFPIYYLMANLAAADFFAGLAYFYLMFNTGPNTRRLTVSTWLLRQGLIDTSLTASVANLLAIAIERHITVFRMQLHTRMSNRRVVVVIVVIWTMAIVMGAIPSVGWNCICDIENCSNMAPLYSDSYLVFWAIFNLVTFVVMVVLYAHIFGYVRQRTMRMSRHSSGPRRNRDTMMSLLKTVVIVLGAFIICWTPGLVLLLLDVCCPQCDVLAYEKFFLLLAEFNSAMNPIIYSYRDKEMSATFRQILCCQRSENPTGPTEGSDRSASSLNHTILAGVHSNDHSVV

| IC50 [nM] | Compound |
| --- | --- |
| 14 | Cc1ccc(NC(=O)C2(c3ccccc3C(C)C)CN(C(=O)CN(CC(=O)O)C3CC3)C2)c(OC(F)F)n1 [Ex 43, N-cyclopropyl-N-(2-(3-((2-(difluoromethoxy)-6-methylpyridin-3-yl)carbamoyl)-3-(2-isopropylphenyl)azetidin-1-yl)-2-oxoethyl)glycine] |
| 8.6 | Cc1ccc(NC(=O)C2(c3ccccc3C3CCCC3)CNC2)c(OC(F)F)n1 [Ex 25, 3-(2-cyclopentylphenyl)-N-(2-(difluoromethoxy)-6-methylpyridin-3-yl)azetidine-3-carboxamide] |
| 150 | Cc1ccc(NC(=O)C2(c3ccccc3C(C)C)CN(C(=O)COCCOCC(=O)O)C2)c(OC(F)F)n1 [Ex 12-107, 2-(2-(2-(3-((2-(difluoromethoxy)-6-methylpyridin-3-yl)carbamoyl)-3-(2-isopropylphenyl)azetidin-1-yl)-2-oxoethoxy)ethoxy)acetic acid] |
| 26 | COC(=O)CCS(=O)(=O)N1CCC(C(=O)Nc2ccc(C)nc2OC(F)F)(c2ccccc2C(C)C)CC1 [Ex 13-6, methyl 3-((4-((2-(difluoromethoxy)-6-methylpyridin-3-yl)carbamoyl)-4-(2-isopropylphenyl)piperidin-1-yl)sulfonyl)propanoate] |
| 4 | CC(C)c1ccccc1C1(C(=O)Nc2cccnc2OC(F)F)CN(c2ccc(C#N)cn2)C1 [Ex 18-23, 1-(5-cyanopyridin-2-yl)-N-(2-(difluoromethoxy)pyridin-3-yl)-3-(2-isopropylphenyl)azetidine-3-carboxamide] |
| 3 | CCOC(=O)CC(=O)N1CCC(C(=O)Nc2ccc(C)nc2OC(F)F)(c2ccccc2C(C)C)CC1 [Ex 12-65, ethyl-3-(4-((2-(difluoromethoxy)-6-methylpyridin-3-yl)carbamoyl)-4-(2-isopropylphenyl)piperidin-1-yl)-3-oxopropanoate] |
| 110 | Cc1cnc(NC(=O)C2(c3ccccc3C(C)C)CN(S(=O)(=O)CCC(=O)O)C2)c(OC(F)F)c1 [Ex 80-2, 3-((3-((3-(difluoromethoxy)-5-methylpyridin-2-yl)carbamoyl)-3-(2-isopropylphenyl)azetidin-1-yl)sulfonyl)propanoic acid] |
| 88 | Cc1cnc(NC(=O)C2(c3ccccc3C(C)C)CN(C(=O)OCC(=O)O)C2)c(OC(F)F)c1 [Ex 83-2, 2-((3-((3-(difluoromethoxy)-5-methylpyridin-2-yl)carbamoyl)-3-(2-isopropylphenyl)azetidine-1-carbonyl)oxy)acetic acid] |
| 25 | Cc1ccc(NC(=O)C2(c3ccccc3C(C)C)CN(C(=O)CC3(N)COC3)C2)c(OC(F)F)n1 [Ex 12-38, 1-(2-(3-aminooxetan-3-yl)acetyl)-N-(2-(difluoromethoxy)-6-methylpyridin-3-yl)-3-(2-isopropylphenyl)azetidine-3-carboxamide] |
| 11 | Cc1ccc(NC(=O)C2(c3ccccc3C(C)C)CN(c3ncc(C(=O)O)cn3)C2)c(OC(F)F)n1 [Ex 18-5, 2-(3-((2-(difluoromethoxy)-6-methylpyridin-3-yl)carbamoyl)-3-(2-isopropylphenyl)azetidin-1-yl)pyrimidine-5-carboxylic acid] |
| 25 | Cc1ccc(NC(=O)C2(c3ccccc3C(C)C)CN(C(=O)c3nnn[nH]3)C2)c(OC(F)F)n1 [Ex 12-18, N-(2-(difluoromethoxy)-6-methylpyridin-3-yl)-3-(2-isopropylphenyl)-1-(1H-tetrazole-5-carbonyl)azetidine-3-carboxamide] |
| 8 | Cc1ccc(NC(=O)C2(c3c(F)cccc3C(C)C)CNC2)c(OC(F)F)n1 [Ex 36, N-(2-(difluoromethoxy)-6-methylpyridin-3-yl)-3-(2-fluoro-6-isopropylphenyl)azetidine-3-carboxamide] |
| 594 | COc1nc(Cl)ccc1NC(=O)C1(c2ccccc2C(C)C)CNC1 [Ex 5, N-(6-chloro-2-methoxypyridin-3-yl)-3-(2-isopropylphenyl)azetidine-3-carboxamide] |
| 43 | Cc1ccc(NC(=O)C2(c3ccccc3C(C)C)CN(Cc3cccn3CC(=O)O)C2)c(OC(F)F)n1 [Ex 11-42, 2-(2-((3-((2-(difluoromethoxy)-6-methylpyridin-3-yl)carbamoyl)-3-(2-isopropylphenyl)azetidin-1-yl)methyl)-1H-pyrrol-1-yl)acetic acid] |
| 315 | 5-(3-((2-(difluoromethoxy)-6-methylpyridin-3-yl)carbamoyl)-3-(2-isopropylphenyl)azetidin-1-yl)-2-methylpentan-2-yl acetate [Ex 11-65] |
| 31 | CCOc1nc(C)ccc1NC(=O)C1(c2ccccc2C(C)C)CN(S(N)(=O)=O)C1 [Ex 15-17, N-(2-ethoxy-6-methylpyridin-3-yl)-3-(2-isopropylphenyl)-1-sulfamoylazetidine-3-carboxamide] |
| 56 | Cc1ccc(NC(=O)C2(c3ccccc3C(C)C)CN(C(=O)CC3(C(=O)O)CCN(C)CC3)C2)c(OC(F)F)n1 [Ex 12-124, 4-(2-(3-((2-(difluoromethoxy)-6-methylpyridin-3-yl)carbamoyl)-3-(2-isopropylphenyl)azetidin-1-yl)-2-oxoethyl)-1-methylpiperidine-4-carboxylic acid] |

| IC50 [nM] | Compound |
| --- | --- |
| 69 | CC(=O)NS(=O)(=O)N1CC(C(=O)Nc2ccc(C)nc2OC(F)F)(c2ccccc2C(C)C)C1 [Ex 16-1, 1-(N-acetylsulfamoyl)-N-(2-(difluoromethoxy)-6-methylpyridin-3-yl)-3-(2-isopropylphenyl)azetidine-3-carboxamide] |
| 1030 | CC(C)c1cccnc1C1(C(=O)Nc2ncc(Cl)cc2OC(F)F)CNC1 [Ex 77, N-(5-chloro-3-(difluoromethoxy)pyridin-2-yl)-3-(3-isopropylpyridin-2-yl)azetidine-3-carboxamide] |
| 11 | Methyl 4-(3-((5-bromo-3-(difluoromethoxy)pyridin-2-yl)carbamoyl)-3-(2-isopropylphenyl)azetidin-1-yl)-2,2-dimethyl-4-oxobutanoate [Ex 79-2] |
| 7 | Cc1ccc(NC(=O)C2(c3ccccc3C(C)C)CN(S(=O)(=O)CCCC(=O)O)C2)c(OC(F)F)n1 [Ex 13-17, 4-((3-((2-(difluoromethoxy)-6-methylpyridin-3-yl)carbamoyl)-3-(2-isopropylphenyl)azetidin-1-yl)sulfonyl)butanoic acid] |
| 564 | COc1cc(Br)cnc1NC(=O)C1(c2ccccc2C(C)C)CNC1 [Ex 71, N-(5-bromo-3-methoxypyridin-2-yl)-3-(2-isopropylphenyl)azetidine-3-carboxamide] |
| 83 | CC(=O)NS(=O)(=O)CC(=O)N1CC(C(=O)Nc2ccc(C)nc2OC(F)F)(c2ccccc2C(C)C)C1 [Ex 16-3, 1-(2-(N-acetylsulfamoyl)acetyl)-N-(2-(difluoromethoxy)-6-methylpyridin-3-yl)-3-(2-isopropylphenyl)azetidine-3-carboxamide] |
| 8 | Cc1ccc(NC(=O)C2(c3ccccc3C(C)C)CN(c3cnc(C4(C(=O)O)CC4)nc3)C2)c(OC(F)F)n1 [Ex 18-17, 1-(5-(3-((2-(difluoromethoxy)-6-methylpyridin-3-yl)carbamoyl)-3-(2-isopropylphenyl)azetidin-1-yl)pyrimidin-2-yl)cyclopropane-1-carboxylic acid] |
| 63 | CNC(C)(C)CN1CC(C(=O)Nc2ccc(C)nc2OC(F)F)(c2ccccc2C(C)C)C1 [Ex 11-64, N-(2-(difluoromethoxy)-6-methylpyridin-3-yl)-3-(2-isopropylphenyl)-1-(2-methyl-2-(methylamino)propyl)azetidine-3-carboxamide] |
| 7 | Cc1ccc(NC(=O)C2(c3ccccc3C(C)C)CN(C(=O)CNC[C@H](C)O)C2)c(OC(F)F)n1 [Ex 12-56, (S)-N-(2-(difluoromethoxy)-6-methylpyridin-3-yl)-1-((S)-(2-hydroxypropyl)glycyl)-3-(2-isopropylphenyl)azetidine-3-carboxamide] |
| 9 | Cc1ccc(NC(=O)C2(c3ccccc3C(C)C)CN(Cc3ccno3)C2)c(OC(F)F)n1 [Ex 11-36, N-(2-(difluoromethoxy)-6-methylpyridin-3-yl)-3-(2-isopropylphenyl)-1-(isoxazol-5-ylmethyl)azetidine-3-carboxamide] |
| 19 | Cc1ccc(NC(=O)C2(c3ccccc3C3CC3)CN(C(=O)CC(C)(C)C(=O)O)C2)c(OC(F)F)n1 [Ex 31-1, 4-(3-(2-cyclopropylphenyl)-3-((2-(difluoromethoxy)-6-methylpyridin-3-yl)carbamoyl)azetidin-1-yl)-2,2-dimethyl-4-oxobutanoic acid] |
| 155 | Cc1ccc(NC(=O)C2(c3ccccc3C(C)C)CN(C(=O)CNCCC(=O)O)C2)c(OC(F)F)n1 [Ex 44, 3-((2-(3-((2-(difluoromethoxy)-6-methylpyridin-3-yl)carbamoyl)-3-(2-isopropylphenyl)azetidin-1-yl)-2-oxoethyl)amino)propanoic acid] |
| 106 | Cc1ccc(NC(=O)C2(c3ccccc3C(C)C)CN(C(=O)C3COCCN3)C2)c(OC(F)F)n1 (stereo not drawn) [Ex 12-43, N-(2-(difluoromethoxy)-6-methylpyridin-3-yl)-3-(2-isopropylphenyl)-1-(morpholine-3-carbonyl)azetidine-3-carboxamide] |
| > 10000 | COCCNS(=O)(=O)N1CC(C(=O)Nc2cccnc2OC)(c2ccccc2)C1 [Ex 86, 1-(N-(2-methoxyethyl)sulfamoyl)-N-(2-methoxypyridin-3-yl)-3-phenylazetidine-3-carboxamide, reference compound] |
| 7 | Cc1ccc(NC(=O)C2(c3ccccc3C(C)C)CN(C(=O)CCC(=O)C(F)(F)F)C2)c(OC(F)F)n1 [Ex 12-11, N-(2-(difluoromethoxy)-6-methylpyridin-3-yl)-3-(2-isopropylphenyl)-1-(5,5,5-trifluoro-4-oxopentanoyl)azetidine-3-carboxamide] |
| 41 | CC(C)c1ccccc1C1(C(=O)Nc2cccnc2OC(F)F)CN(c2nc(C(=O)O)co2)C1 [Ex 18-30, 2-(3-((2-(difluoromethoxy)pyridin-3-yl)carbamoyl)-3-(2-isopropylphenyl)azetidin-1-yl)oxazole-4-carboxylic acid] |
